Source: patent US6531462B2, “Medicament for treating obesity and improving lipid metabolism” (priority 1997, dated 2003)

How the values were obtained:
[1] = Example 1: body weight, body fat and feed intake of mice fed feed supplemented with 0.5% test compound; assay type: in vivo, CDF1 male mice
Procedure: (§1) 5-Sitosten-3-one was prepared according to the method of Parish (Parish, E. J., et al., Synthetic Communication, 22, pp.2839-2847, 1992) by using β-sitosterol (Tokyo Chemical Industry Co., Ltd.) as a starting material and used in the experiments. The content ratio of 24-ethyl and 24-methyl compounds in the synthesized product was 6.5:3.5. As experimental animals, six CDF1 male mice (5-week old, Charles River Japan Inc.) were used in each experimental group. The animals were fed in aluminum cages for mice, and allowed to feed and water ad libitum. The animals were fed for 2 weeks under feeding conditions at a temperature of 24±1° C. and a relative humidity of 55±5%, where light and darkness were controlled to change every 12 hours, and each cage and floor mat (white flakes) were exchanged twice a week.
(§2) Modified AIN (Oriental Yeast Co.) was used as basic feed and mixed with 0.5% 5-sitosten-3-one to prepare test feeds. A feed used as a positive control was prepared by adding 0.5% of 4-cholesten-3-one (Japanese Patent Unexamined Publication No. Hei 5-170651/1993) to the basic feed. Non-treated mice as a control were fed solely with the basic feed. The basic feed was composed of 22.8% crude protein, 54.1% carbohydrates, 6.0% lipids, 4.9% fibers, 2.9% ash, and 8.7% water, and its calorie was 1,523 kJ. The feed was stored at 4° C. after preparation, and a fresh feed was supplied every day.
(§3) The animals were weighed at given intervals of time, and the average values and standard errors of the experimental groups were determined. In addition, feed consumptions were measured at given intervals of time and daily averages per mouse were determined. The animals were observed every day. After the end of the feeding, the animals were anesthetized to death with carbon dioxide gas, and bloods were collected from the vena cava to obtain serums. The animals were autopsied, and the brains, lungs, hearts, livers, spleens, kidneys, testis, adrenals and intraperitoneal fat were examined by the naked eye and weighed. As to serum lipid, neutral fats were measured by using a clinical test kit based on the enzyme method (Triglyceride-E Test, Wako Pure Chemicals Industries Co., Ltd.), and total cholesterol and cholestanol were measured by the method of Kasama (T. Kasama, et al., J. Chromatogr., 400, 241, 1987) with modifications, where the amount of benzoyl chloride was increased by 10 times, the reaction time was doubled, and the measurement was performed by using a high performance liquid chromatography system. Significant differences were determined by t-test for body weights and serum lipids on the basis of the non-treated control mice.

[2] = Example 3: dose response of 5-sitosten-3-one on body weight, feed intake, feed efficiency and intraperitoneal fat; assay type: in vivo, CDF1 male mice; settings: for Intraperitoneal fat: 3 weeks, mean (n=6) ± standard error; for Body weight gain: total throughout the experimental period
Description: (§4) 5Sitosten-3-one was synthesized from β-sitosterol (Tokyo Chemical Industry Co., Ltd.) according to the method of Parish (Parish, E. J., et al., Synthetic Communication, 22, pp.2839-2847, 1992), and purified by silica gel column chromatography and recrystallization. The content ratio of 24-ethyl isomer and 24-methyl compounds in the synthesized product was 6.5:3.5. As experimental animals, thirty 4-week old CDF1 male mice were purchased from Charles River Japan Inc. and divided into five experimental groups each composed of six mice. The test compounds were administered as the admixture in feeds, and the following groups were provided: (1) 0.1% addition, (2) 0.3% addition, (3) 0.5% addition, (4) a lipid-free feed without the addition of the test compound, and (5) control group without the addition of the test compound. A purified feed (modified AIN, Oriental Yeast Co.) was used as a basic feed, and supplemented with 10% soybean oil (Wako Pure Chemical Industries Co., Ltd.) to prepare solid feeds with or without the addition of the test compound. The lipid-free feed, per se, was processed to obtain solid feed. The animals were fed for a week with the feed for the control without the addition of test compound for acclimatization, and then the animals were allowed to feed with the respective feed ad libitum.
(§5) Each group of animals was housed in an aluminum cages of 22×33×11(h)cm (6 mice per a cage), and feedings were carried out at a temperature of 24±1° C. and a relative humidity of 55±5%, where light and darkness were controlled change every 12 hours. Measurements of body weights and feed intakes, and observations of general conditions were conducted three times a week. After the feeding for 3 week with the test feeds, the animals were subjected to autopsy and their bloods were collected. As serum lipid analyses, triglyceride, phospholipid, free fatty acid, total cholesterol, and HDL-cholesterol were measured by using a clinical test kit (Wako Pure Chemicals Industries Co., Ltd. ). Significances of the resulting values were examined by the variance analysis for the groups treated with the medicament, or by the t-test for the lipid-free feed group.

[3] = Example 3: general conditions and weight of organs; assay type: in vivo, CDF1 male mice
Description: as §4, §5

[4] = Example 1: serum lipids and serum metabolites of mice fed feed supplemented with 0.5% test compound; assay type: in vivo; settings: for Serum metabolite: metabolite of the test compound detected in serum
Procedure: as §1, §2, §3

[5] = Example 1: general conditions and autopsical finding; assay type: in vivo, CDF1 male mice; settings: 0.5% in feed, 2 weeks
Procedure: as §1, §2, §3

[6] = Feeding of rats with feed with 0.5% addition for 4 weeks (organ changes); assay type: in vivo; settings: Fischer F344 rats
Description: The changes observed in the livers, pancreases, kidneys, and lungs in the groups treated with the medicament were commonly observed in the lipid-free feed group, although the degrees were different. In the lipid-free feed group, absolute weight and relative weight of livers increased by 4% and 6%, respectively, and absolute weight and relative weight of kidneys decreased by 12% and 11%, respectively. […] These changes were not observed when Fischer F344 rats were fed with the feed with 0.5% addition for 4 weeks, and therefore, the changes were considered as unique to CDF1 mice.

[7] = Example 3: dose response of 5-sitosten-3-one on serum lipids; assay type: in vivo, CDF1 male mice; settings: for Free fatty acid / HDL-cholesterol / Phospholipid / Total cholesterol / Triglyceride: 3 weeks, mean (n=6) ± standard error
Description: as §4, §5

[8] = ratio relative to the non-treated control group, CDF1 mice

## 5-sitosten-3-one (24-ethylcholest-5-en-3-one)
[1]; 0.5% in feed for two weeks
  Amount of intraperitoneal fat relative to non-treated control mice (FIG. 2): half
  Body fat (subcutaneous fat and intraperitoneal fat): Remarkable decreases
[1]; 0.5% in feed, compared to non-treated control mice
  Increase in body weight (FIG. 1): remarkably suppressed
[1]; [8]
  Body weight gain: 56%
  Intraperitoneal fat: 50%
[2]; 0.1% addition group
  Amount of intraperitoneal fat relative to the control group: 83%
[2]; 0.1% addition to feed
  Feed efficiency (body weight gain/feed intake): 0.079
  Intraperitoneal fat: 996.0 ± 53.5 mg
  Body weight gain: 4.89 g/mouse
[2]; 0.1%, 0.3% and 0.5% addition, dose-dependent
  Changes in body weight (FIG. 4): body weight decreases were observed
[2]; 0.3% addition group
  Amount of intraperitoneal fat relative to the control group: 63%
[2]; 0.3% addition to feed
  Feed efficiency (body weight gain/feed intake): 0.062
  Intraperitoneal fat: 760.7 ± 36.9 mg
  Body weight gain: 3.62 g/mouse
[2]; 0.5% addition group
  Amount of intraperitoneal fat relative to the control group: 42%
  Decrease of feed efficiency compared to the control group: about 80%
[2]; 0.5% addition to feed
  Feed efficiency (body weight gain/feed intake): 0.016
  Intraperitoneal fat: 500.6 ± 79.2 mg
  Body weight gain: 0.84 g/mouse
[3]; 0.1% addition group
  Liver weight difference: no significant difference
[3]; 0.1-0.5% addition groups
  Absolute weights of pancreas: decreased in proportion to the amount of the medicament
  Changes in relative weight of pancreas: not significant
[3]; 0.3% addition group
  Decrease of absolute weight of kidney: 17%
  Decrease of relative weight of kidney: 10%
  Increase of relative weight of livers: 17%
[3]; 0.5% addition group
  Absolute weight of lungs and spleens: Decreases
  Decrease of absolute weight of kidney: 32%
  Decrease of relative weight of kidney: 17%
  Increase of absolute weight of livers: 15%
  Increase of relative weight of livers: 40%
  Relative weights of lungs and spleens: not different from those of the control group
[3]; each experimental group, except for changes in body weight
  General conditions (appearance, properties of feces, breath and behavior): No abnormality
[3]; organs of treated CDF1 mice
  Histopathological change: absence of any histopathological change
[4]; 0.5% in feed, 2 weeks, n=6
  Cholestanol (serum), mean ± standard error: 0 mg/dL
  Neutral fats (serum), mean ± standard error: 56.5 ± 8.2 mg/dL
  Total cholesterol (serum), mean ± standard error: 81.3 ± 3.0 mg/dL
[4]; CDF1 mice
  Serum metabolite: 0
[4]; CDF1 mice, listed as 5-sitosten-3-one
  Serum metabolite: no cholestanol and other metabolites were detected
[4]; [8]
  Serum cholesterol: 51%
  Serum neutral fats: 15%
[5]
  General conditions: normal
  Kidney weight at autopsy: slight weight decrease
[5]; autopsy
  Pathological abnormality in the other organs and tissues: No pathological abnormality
[6]
  Organ weight changes (livers, pancreases, kidneys, lungs): not observed
[7]; 0.1% addition to feed
  Free fatty acid: 1.41 ± 0.04 mEq/dl
  HDL-cholesterol: 68.7 ± 13.6 mg/dL
  Phospholipid: 237.8 ± 8.9 mg/dL
  Total cholesterol: 164.8 ± 4.0 mg/dL
  Triglyceride: 145.4 ± 8.5 mg/dL
[7]; 0.1-0.5% addition groups
  Change in HDL-cholesterol: no significant change
[7]; 0.3% addition to feed
  Free fatty acid: 1.05 ± 0.06 mEq/dl
  HDL-cholesterol: 72.5 ± 7.7 mg/dL
  Phospholipid: 187.0 ± 12.2 mg/dL
  Total cholesterol: 125.5 ± 7.6 mg/dL
  Triglyceride: 78.0 ± 0.9 mg/dL
[7]; 0.5% addition group
  Triglyceride as compared to the control group (decrease down to): 26%
[7]; 0.5% addition to feed
  Free fatty acid: 0.87 ± 0.05 mEq/dl
  HDL-cholesterol: 61.7 ± 4.3 mg/dL
  Phospholipid: 172.5 ± 8.6 mg/dL
  Total cholesterol: 102.9 ± 6.4 mg/dL
  Triglyceride: 66.8 ± 2.3 mg/dL
